According to patent US12178210B2, “Insect attractant and killing system” (priority 2020, dated 2024):
Where two headings read alike, the source gives them in different places.

How the values were obtained:
[1] = for Attractant Release Rate (5-day average per time point): 15 g
Text: All prototype lure devices (i.e., the attractant receptacle and permeable membrane with enclosed volatile insect attractant) were constructed using polypropylene/calcium carbonate film (UV8) for the permeable membrane and Scotchpak™ (3M) polyester laminate film for the impermeable barrier material. Each lure device measured approximately 11.5 cm×5.5 cm with a 1.6 mm ( 1/16 in) diameter spherical punch in the impermeable layer exposing the membrane and an ˜8 mm ( 5/16 in) diameter heat seal around the circumference of the punch (referred to as a ring seal). […] Prior to being deployed the lures were weighed on an analytical balance (Sartorius, Universal; resolution of 0.01 g). Prototype lures were attached to a cord that ran the length of ventilated laboratory fume hood, with 5-8 cm (2-3 in) separating each lure in an open, ventilated room at the indicated temperature (18-20° C. or 39-41° C.). Every 2-3 days the lures were removed from the cord and weighed on the same scale. Lure weight was recorded and the weight loss (g/day) was calculated. In addition to prototype lures, two controls were included in the study consisting of a current Suterra lure product (WHF lure) and a competitor product (Comp. Prod. 1).

[2] = field, Valencia
Protocol: Every two weeks samples of the attractant were weighed to determine the mass. From the mass, the mass that had been released, the mass remaining, and the amount of ammonia released was determined.

N.N.O=C(O)O [Ammonium Carbonate, ammonium carbonate]
Release Rate ([1]; 40° C., 16 hours, UV8 membrane, 1.6 mm orifice): 0.39 g/day | Release Rate ([1]; 40° C., 16 hours, second, unexplained block of rows): 0.02 g/day | Release Rate ([1]; 40° C., 24 hours, UV8 membrane, 1.6 mm orifice): 0.37 g/day | Release Rate ([1]; 40° C., 24 hours, second, unexplained block of rows): 0.03 g/day | Release Rate ([1]; 40° C., 51 hours, UV8 membrane, 1.6 mm orifice): 0.36 g/day | Release Rate ([1]; 40° C., 51 hours, second, unexplained block of rows): 0.05 g/day | Release Rate ([1]; 40° C., 88 hours, UV8 membrane, 1.6 mm orifice): 0.36 g/day | Release Rate ([1]; 40° C., 88 hours, second, unexplained block of rows): 0.09 g/day | Release Rate ([1]; 40° C., 96 hours, UV8 membrane, 1.6 mm orifice): 0.36 g/day | Release Rate ([1]; 40° C., 96 hours, second, unexplained block of rows): 0.09 g/day | Release Rate ([1]; 40° C., 112 hours, UV8 membrane, 1.6 mm orifice): 0.36 g/day | Release Rate ([1]; 40° C., 112 hours, second, unexplained block of rows): 0.10 g/day | Release Rate ([1]; 40° C., 120 hours, UV8 membrane, 1.6 mm orifice): 0.36 g/day | Release Rate ([1]; 40° C., 120 hours, second, unexplained block of rows): 0.11 g/day | Release Rate ([1]; 40° C., 144 hours, UV8 membrane, 1.6 mm orifice): 0.36 g/day | Release Rate ([1]; 40° C., 144 hours, second, unexplained block of rows): 0.13 g/day | Release Rate ([1]; 40° C., 168 hours, UV8 membrane, 1.6 mm orifice): 0.35 g/day | Release Rate ([1]; 40° C., 168 hours, second, unexplained block of rows): 0.15 g/day | Attractant Release Rate (5-day average per time point) ([1]; 40° C., day 5, UV8 membrane, 1.6 mm orifice): 391.6 mg/day | Attractant Release Rate (5-day average per time point) ([1]; 40° C., day 10, UV8 membrane, 1.6 mm orifice): 402.8 mg/day | Attractant Release Rate (5-day average per time point) ([1]; 40° C., day 15, UV8 membrane, 1.6 mm orifice): 396.5 mg/day | Attractant Release Rate (5-day average per time point) ([1]; 40° C., day 20, UV8 membrane, 1.6 mm orifice): 316.7 mg/day | Attractant Release Rate (5-day average per time point) ([1]; 40° C., day 25, UV8 membrane, 1.6 mm orifice): 198.0 mg/day | Attractant Release Rate (5-day average per time point) ([1]; 40° C., day 30, UV8 membrane, 1.6 mm orifice): 156.0 mg/day | Attractant Release Rate (5-day average per time point) ([1]; 40° C., day 35, UV8 membrane, 1.6 mm orifice): 112.0 mg/day | Attractant Release Rate (5-day average per time point) ([1]; 40° C., day 40, UV8 membrane, 1.6 mm orifice): 108.4 mg/day | Attractant Release Rate (5-day average per time point) ([1]; 40° C., day 45, UV8 membrane, 1.6 mm orifice): 100.4 mg/day | Attractant Release Rate (5-day average per time point) ([1]; 40° C., day 49, UV8 membrane, 1.6 mm orifice): 98.0 mg/day | Attractant Release Rate (5-day average per time point) ([1]; 40° C., day 55, UV8 membrane, 1.6 mm orifice): 87.7 mg/day | Attractant Release Rate (5-day average per time point) ([1]; Ambient Temperature, day 5, UV8 membrane, 1.6 mm orifice): 97 mg/day | Attractant Release Rate (5-day average per time point) ([1]; Ambient Temperature, day 10, UV8 membrane, 1.6 mm orifice): 99.5 mg/day | Attractant Release Rate (5-day average per time point) ([1]; Ambient Temperature, day 15, UV8 membrane, 1.6 mm orifice): 101.9 mg/day | Attractant Release Rate (5-day average per time point) ([1]; Ambient Temperature, day 20, UV8 membrane, 1.6 mm orifice): 104.2 mg/day | Attractant Release Rate (5-day average per time point) ([1]; Ambient Temperature, day 25, UV8 membrane, 1.6 mm orifice): 100.5 mg/day | Attractant Release Rate (5-day average per time point) ([1]; Ambient Temperature, day 30, UV8 membrane, 1.6 mm orifice): 101.3 mg/day | Attractant Release Rate (5-day average per time point) ([1]; Ambient Temperature, day 35, UV8 membrane, 1.6 mm orifice): 100.0 mg/day | Attractant Release Rate (5-day average per time point) ([1]; Ambient Temperature, day 40, UV8 membrane, 1.6 mm orifice): 86.0 mg/day | Attractant Release Rate (5-day average per time point) ([1]; Ambient Temperature, day 45, UV8 membrane, 1.6 mm orifice): 86.5 mg/day | Attractant Release Rate (5-day average per time point) ([1]; Ambient Temperature, day 49, UV8 membrane, 1.6 mm orifice): 84.4 mg/day | Attractant Release Rate (5-day average per time point) ([1]; Ambient Temperature, day 55, UV8 membrane, 1.6 mm orifice): 83.8 mg/day | Release Rate ([1]; Ambient, 16 hours, UV8 membrane, 1.6 mm orifice): 0.12 g/day | Release Rate ([1]; Ambient, 16 hours, second, unexplained block of rows): 0.01 g/day | Release Rate ([1]; Ambient, 24 hours, UV8 membrane, 1.6 mm orifice): 0.12 g/day | Release Rate ([1]; Ambient, 24 hours, second, unexplained block of rows): 0.01 g/day | Release Rate ([1]; Ambient, 51 hours, UV8 membrane, 1.6 mm orifice): 0.12 g/day | Release Rate ([1]; Ambient, 51 hours, second, unexplained block of rows): 0.04 g/day | Release Rate ([1]; Ambient, 88 hours, UV8 membrane, 1.6 mm orifice): 0.11 g/day | Release Rate ([1]; Ambient, 88 hours, second, unexplained block of rows): 0.06 g/day | Release Rate ([1]; Ambient, 96 hours, UV8 membrane, 1.6 mm orifice): 0.12 g/day | Release Rate ([1]; Ambient, 96 hours, second, unexplained block of rows): 0.07 g/day | Release Rate ([1]; Ambient, 112 hours, UV8 membrane, 1.6 mm orifice): 0.11 g/day | Release Rate ([1]; Ambient, 112 hours, second, unexplained block of rows): 0.08 g/day | Release Rate ([1]; Ambient, 120 hours, UV8 membrane, 1.6 mm orifice): 0.12 g/day | Release Rate ([1]; Ambient, 120 hours, second, unexplained block of rows): 0.08 g/day | Release Rate ([1]; Ambient, 144 hours, UV8 membrane, 1.6 mm orifice): 0.11 g/day | Release Rate ([1]; Ambient, 144 hours, second, unexplained block of rows): 0.08 g/day | Release Rate ([1]; Ambient, 168 hours, UV8 membrane, 1.6 mm orifice): 0.11 g/day | Release Rate ([1]; Ambient, 168 hours, second, unexplained block of rows): 0.11 g/day | Avg. Mass Loss ([2]; week 0, ave. temp. 25.10 ° C): 0.00 g | Avg. Mass Remaining ([2]; week 0, ave. temp. 25.10 ° C): 14.94 g | Avg. Release Rate ([2]; week 0, ave. temp. 25.10 ° C): 0.000 g/day | Avg. Mass Loss ([2]; week 2, ave. temp. 26.30 ° C): 0.48 g | Avg. Mass Remaining ([2]; week 2, ave. temp. 26.30 ° C): 14.46 g | Avg. Release Rate ([2]; week 2, ave. temp. 26.30 ° C): 0.035 g/day | Avg. Mass Loss ([2]; week 4, ave. temp. 26.90 ° C): 1.57 g | Avg. Mass Remaining ([2]; week 4, ave. temp. 26.90 ° C): 13.37 g | Avg. Release Rate ([2]; week 4, ave. temp. 26.90 ° C): 0.078 g/day | Avg. Mass Loss ([2]; week 6, ave. temp. 27.10 ° C): 2.73 g | Avg. Mass Remaining ([2]; week 6, ave. temp. 27.10 ° C): 12.21 g | Avg. Release Rate ([2]; week 6, ave. temp. 27.10 ° C): 0.083 g/day | Avg. Mass Loss ([2]; week 8, ave. temp. 24.40 ° C): 3.77 g | Avg. Mass Remaining ([2]; week 8, ave. temp. 24.40 ° C): 11.17 g | Avg. Release Rate ([2]; week 8, ave. temp. 24.40 ° C): 0.074 g/day | Avg. Mass Loss ([2]; week 10, ave. temp. 22.60 ° C): 4.09 g | Avg. Mass Remaining ([2]; week 10, ave. temp. 22.60 ° C): 10.85 g | Avg. Release Rate ([2]; week 10, ave. temp. 22.60 ° C): 0.023 g/day | Avg. Mass Loss ([2]; week 12, ave. temp. 21.50 ° C): 4.66 g | Avg. Mass Remaining ([2]; week 12, ave. temp. 21.50 ° C): 10.28 g | Avg. Release Rate ([2]; week 12, ave. temp. 21.50 ° C): 0.041 g/day | Avg. Mass Loss ([2]; week 14, ave. temp. 19.90 ° C): 4.93 g | Avg. Mass Remaining ([2]; week 14, ave. temp. 19.90 ° C): 10.01 g | Avg. Release Rate ([2]; week 14, ave. temp. 19.90 ° C): 0.019 g/day | Avg. Mass Loss ([2]; week 16, ave. temp. 17.70 ° C): 5.11 g | Avg. Mass Remaining ([2]; week 16, ave. temp. 17.70 ° C): 9.83 g | Avg. Release Rate ([2]; week 16, ave. temp. 17.70 ° C): 0.013 g/day | Avg. Mass Loss ([2]; week 18, ave. temp. 15.30 ° C): 5.30 g | Avg. Mass Remaining ([2]; week 18, ave. temp. 15.30 ° C): 9.64 g | Avg. Release Rate ([2]; week 18, ave. temp. 15.30 ° C): 0.013 g/day | Avg. Mass Loss ([2]; week 20, ave. temp. 14.40 ° C): 5.59 g | Avg. Mass Remaining ([2]; week 20, ave. temp. 14.40 ° C): 9.35 g | Avg. Release Rate ([2]; week 20, ave. temp. 14.40 ° C): 0.021 g/day | Avg. Mass Loss ([2]; week 24, ave. temp. 11.70 ° C): 5.86 g | Avg. Mass Remaining ([2]; week 24, ave. temp. 11.70 ° C): 9.08 g | Avg. Release Rate ([2]; week 24, ave. temp. 11.70 ° C): 0.009 g/day | Avg. Mass Loss ([2]; week 28, ave. temp. […] C): 6.20 g | Avg. Mass Remaining ([2]; week 28, ave. temp. […] C): 8.74 g | Avg. Release Rate ([2]; week 28, ave. temp. […] C): 0.012 g/day | Avg. Mass Loss ([2]; week 31, ave. temp. […] C): 6.80 g | Avg. Mass Remaining ([2]; week 31, ave. temp. […] C): 8.14 g | Avg. Release Rate ([2]; week 31, ave. temp. […] C): 0.028 g/day | Avg. Mass Loss ([2]; week 35, ave. temp. 12.60 ° C): 7.29 g | Avg. Mass Remaining ([2]; week 35, ave. temp. 12.60 ° C): 7.65 g | Avg. Release Rate ([2]; week 35, ave. temp. 12.60 ° C): 0.018 g/day | Avg. Mass Loss ([2]; week 38, ave. temp. 13.50 ° C): 7.56 g | Avg. Mass Remaining ([2]; week 38, ave. temp. 13.50 ° C): 7.38 g | Avg. Release Rate ([2]; week 38, ave. temp. 13.50 ° C): 0.013 g/day | Avg. Mass Loss ([2]; week 39, ave. temp. 13.30 ° C): 7.80 g | Avg. Mass Remaining ([2]; week 39, ave. temp. 13.30 ° C): 7.14 g | Avg. Release Rate ([2]; week 39, ave. temp. 13.30 ° C): 0.033 g/day | Avg. Mass Loss ([2]; week 41, ave. temp. 15.80 ° C): 8.12 g | Avg. Mass Remaining ([2]; week 41, ave. temp. 15.80 ° C): 6.82 g | Avg. Release Rate ([2]; week 41, ave. temp. 15.80 ° C): 0.023 g/day | Avg. Mass Loss ([2]; week 43, ave. temp. 16.50 ° C): 8.44 g | Avg. Mass Remaining ([2]; week 43, ave. temp. 16.50 ° C): 6.50 g | Avg. Release Rate ([2]; week 43, ave. temp. 16.50 ° C): 0.023 g/day | Avg. Mass Loss ([2]; week 46, ave. temp. 18.10 ° C): 9.17 g | Avg. Mass Remaining ([2]; week 46, ave. temp. 18.10 ° C): 5.77 g | Avg. Release Rate ([2]; week 46, ave. temp. 18.10 ° C): 0.035 g/day | Avg. Mass Loss ([2]; week 47, ave. temp. 20.40 ° C): 9.48 g | Avg. Mass Remaining ([2]; week 47, ave. temp. 20.40 ° C): 5.46 g | Avg. Release Rate ([2]; week 47, ave. temp. 20.40 ° C): 0.044 g/day
